Results published in patent EP4424327A1, “METHOD OR AGENT WITH HDAC REGULATOR, FOR TREATMENT OF DIABETES AND COMPLICATIONS” (Biozipcode, Inc., priority 2021, dated 2023).
Where a SMILES comes first, the peptide text is derived from it. [ ]: non-standard residue; d: D form. Aoe = N[C@@H](CCCCCC(=O)[C@@H]1CO1)C(=O)O

Test: Treatment of diabetes mellitus with other HDAC regulators instead of givinostat (Example 7)
Assay type: in vivo
Details: used instead of givinostat; model and dose not stated

In the case of `C=CCSSSCC=C` [diallyl trisulfide], the diabetes mellitus outcome is reported as “similarly cured”.

In the case of `CCCC(=O)OCOC(=O)C(C)(C)C` [(pivaloyloxy)methyl butyrate], the diabetes mellitus outcome is reported as “similarly cured”.

For `O=C(CCCCCCC(=O)Nc1ccc([C@H]2O[C@@H](CSc3nc(-c4ccccc4)c(-c4ccccc4)o3)C[C@@H](c3ccc(CO)cc3)O2)cc1)NO` [Tubacin], the diabetes mellitus outcome was “similarly cured”.

In the case of `O=C(CCC1=CCCN(CCCc2ccccc2)C1=O)NO` [KBH-A42], the diabetes mellitus outcome is reported as “similarly cured”.

In the case of `O=C(CCCCCCCC(=O)NO)NO` [azelaoyl-bis-hydroxamic acid], the diabetes mellitus outcome is reported as “similarly cured”.

With `O=C(/C=C/c1ccc(CN(CCO)CCc2c[nH]c3ccccc23)cc1)NO` [dacinostat] the diabetes mellitus outcome was “similarly cured”.

In the case of `CCCCc1nc2cc(/C=C/C(=O)NO)ccc2n1CCN(CC)CC` [pracinostat], the diabetes mellitus outcome is reported as “similarly cured”.

With `CN(C)CCCNC(=O)/C(=C/CCCCC(=O)NO)COc1cccc2ccccc12` [CG200745] the diabetes mellitus outcome was “similarly cured”.

For `O=C1N[C@@H](Cc2ccccc2)C(=O)N2CCC[C@@H]2C(=O)N[C@@H](CCCCCC(=O)[C@@H]2CO2)C(=O)N[C@H]1Cc1ccccc1` [trapoxin] (cyclo(FF[dP][Aoe])), the diabetes mellitus outcome was “similarly cured”.

For `CN(C)c1ccc(C(=O)NCc2ccc(/C=C/C(=O)NO)cc2)cc1` [SK-7041], the diabetes mellitus outcome was “similarly cured”.

For `CN(C)Cc1ccc(S(=O)(=O)n2ccc(/C=C/C(=O)NO)c2)cc1` [resminostat], the diabetes mellitus outcome was “similarly cured”.

For `Cn1cc(CNCC2CCN(c3ncc(C(=O)NO)cn3)CC2)c2ccccc21` [quisinostat], the diabetes mellitus outcome was “similarly cured”.

With `Nc1ccccc1NC(=O)c1ccc(CNc2nccc(-c3cccnc3)n2)cc1` [mocetinostat] the diabetes mellitus outcome was “similarly cured”.

For `O=C(CCCCCCSc1ccc2ccccc2c1)NO` [(N-hydroxy-7-2-naphthylthio)heptanomide], the diabetes mellitus outcome was “similarly cured”.

In the case of `Nc1ccccc1NC(=O)c1ccc(CNC(=O)OCc2cccnc2)cc1` [entinostat], the diabetes mellitus outcome is reported as “similarly cured”.

For `O=C(CCCCCCNC(=O)c1cnc(N(c2ccccc2)c2ccccc2)nc1)NO` [rocilinostat], the diabetes mellitus outcome was “similarly cured”.

For `O=C(O)CCCc1ccccc1` [4-phenylbutyric acid], the diabetes mellitus outcome was “similarly cured”.

For `O=C(/C=C/c1cccc(S(=O)(=O)Nc2ccccc2)c1)NO` [belinostat], the diabetes mellitus outcome was “similarly cured”.

In the case of `O=C(CCCCCCC(=O)Nc1ccccc1)NO` [vorinostat, suberoylanilide hydroxamic acid], the diabetes mellitus outcome is reported as “similarly cured”.

For `O=C(CCCCCN1C(=O)c2cccc3cccc(c23)C1=O)NO` [scriptaid], the diabetes mellitus outcome was “similarly cured”.

With `O=C(NO)c1cnc(N2C[C@@H]3[C@H](C2)[C@H]3NCc2ccc3cc(F)ccc3n2)nc1` [nanatinostat] the diabetes mellitus outcome was “similarly cured”.

In the case of `CN(C)Cc1c(C(=O)NCCOc2ccc(C(=O)NO)cc2)oc2ccccc12` [abexinostat], the diabetes mellitus outcome is reported as “similarly cured”.

With `O=C(C=Cc1cccc(C(=O)NO)c1)NO` [m-carboxycinnamic acid bis-hydroxamide] the diabetes mellitus outcome was “similarly cured”.

In the case of `CC(/C=C/C(=O)NO)=C\[C@@H](C)C(=O)c1ccc(N(C)C)cc1` [trichostatin A], the diabetes mellitus outcome is reported as “similarly cured”.

With `CCCC(=O)[O-].[Na+]` [sodium butyrate] the diabetes mellitus outcome was “similarly cured”.

In the case of `CC(=O)Nc1ccc(C(=O)Nc2ccccc2N)cc1` [tacedinaline], the diabetes mellitus outcome is reported as “similarly cured”.
